# Data as given in doi:10.1101/2025.04.25.650653, “Hierarchical small molecule inhibition of MYST acetyltransferases” (bioRxiv, 2025).
# Where “and” joins values, the source holds several entries; their conditions need not be identical. Identical values can stand only once.
# Test system: histone modifications in MCF-7 cells
# Experiment: Histone modification analysis by bottom-up LC-MS/MS;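 on Ratio, H2AV 1 19 K11ac*: inhibitor concentrations in µM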;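 on Ratio, H2AX 4 11 K5acK9ac: inhibitor concentrations in µM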;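 on Ratio, H2AX 4 11 K9ac: inhibitor concentrations in µM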;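 on Ratio, H2AZ 1 19 K15ac: inhibitor concentrations in µM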;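 on Ratio, H2AZ 1 19 K4ac: inhibitor concentrations in µM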;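 on Ratio, H2AZ 1 19 K4acK11ac: inhibitor concentrations in µM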
# Assay type: cell-based
# Description: In this approach. […] Histones are then extracted from cell pellets and chemically derivatized with propionic anhydride, digested with trypsin, subjected to a second round of propionylation, and analyzed by LC-MS/MS. Measuring the relative intensity of modified versus unmodified forms of individual histone peptides enables simultaneous monitoring of multiple potential biomarkers of MYST inhibition. To minimize false positives, we focused on abundant and reproducible modifications (average stoichiometry of greater than 1% across triplicate samples, standard deviation less than or equal to the average measurement). To account for potential histone modification crosstalk, changes in both acetylated and methylated peptides were evaluated. 38 modified peptides passed this reproducible detection threshold including several established KAT biomarkers[41] including H3K9Ac (KAT2A/B), H3K18Ac (KAT3A/B), H3K14Ac (KAT7), H3K23Ac (KAT6A/B), H4K16Ac (KAT8), and H2A.ZK4/K7Ac (KAT5; Fig. 4B).
# Histone modification analysis
# MCF-7 cells were cultured at 37 °C under 5% CO2 in EMEM (Quality Biological, 112-016-101) with 0.01 mg/mL human recombinant insulin (Sigma Aldrich, 91077C), 2 mM L-glutamine (Quality Biological, 118- […]
# human recombinant insulin.
# 1119, WM-3835). Following 24 h inhibitor treatment, cells were washed with ice-cold 1× PBS and scraped in 150 µL of Nuclear Isolation Buffer (NIB) containing 0.1% NP-40 for histone extraction using a modified protocol from the Garcia laboratory. 9 Briefly, cell suspensions were incubated on ice for 5 minutes, and […]
# nuclei were pelleted by centrifugation (600 rcf, 4°C, 5 min). Pelleted nuclei were washed twice with 150 μL of detergent-free NIB buffer, followed by centrifugation (600 rcf, 4°C, 5 min) to remove all detergent.
# Nuclei were then resuspended in 400 μL of 0.4 N H₂SO₄ and rotated at 4°C overnight for acid extraction of histones. The following day, samples were centrifuged (11,000 rcf, 4°C, 10 min) and the histone-containing supernatant was transferred to a fresh tube. Trichloroacetic acid (100% TCA) was added to achieve a final concentration of 20% (v/v), tubes were inverted once to mix, and histone precipitation was performed on ice for at least 3 hours or overnight at 4°C. Precipitated histones were collected by centrifugation (11,000 rcf, 4°C, 10 min) and the supernatant carefully removed, leaving a visible film of histones on the tube wall or bottom. Histone pellets were subjected to sequential washes with 1 mL of ice-cold acidified acetone (0.1% 12 N HCl) followed by 1 mL of 100% ice-cold acetone, with centrifugation (11,000 rcf, 4°C, 5 min) after each wash. Samples were air-dried at room temperature, resuspended in 40 µL of ddH₂O, and protein […]
# analysis, 1-2 µg of purified histones were loaded per lane and processed according to the general immunoblotting protocol described in General Materials and Methods.
# Analysis of histone modifications by LC-MS/MS
# Preparation of histone samples for LC-MS/MS was performed analogously to the procedure for immunoblotting above, with the following modifications. MCF7 cells (4.2 × 106) were seeded in 15 cm dishes and treated with PF-9363 or vehicle. Experiments were performed in triplicate. Following treatment and PBS washing, cells were scraped and collected in 15 mL falcon tubes, pelleted (500 rcf, 4°C, 5 min), resuspended in 1 mL cold PBS, transferred to microcentrifuge tubes, and pelleted again before flash-freezing in liquid nitrogen for storage at -80°C. For extraction, cell pellets (~100 μL) were resuspended in NIB buffer at a 1:10 ratio, and cells were lysed with NIB buffer containing 0.2% NP-40 for 8 minutes on ice. Nuclei were pelleted at 1,000 rcf for 8 minutes and washed three times with 500 μL detergent-free NIB buffer. Histones were extracted using 800 μL of 0.2 M H₂SO₄, and after centrifugation (3,400 rcf, 4°C, 10
# [1] = KAT marker KAT5, PF-9363 0.1, Replicates 1-3
# [2] = KAT marker KAT5, PF-9363 1, Replicates 1-3
# [3] = KAT marker KAT5, PF-9363 10, Replicates 1-3
# [4] = KAT marker KAT5, PF-9363 30, Replicates 1-3
# [5] = KAT marker KAT5, PF-9363 (0.1 mM)
# [6] = KAT marker KAT5, PF-9363 (30 mM)
# [7] = KAT marker KAT5, average ratio 0.1 v 30
smiles,measurement,setting,value
COc1cccc(OC)c1S(=O)(=O)Nc1noc2cc(Cn3cccn3)cc(OC)c12 [PF-9363],"Ratio, H2AV_1_19 K11ac*",[1],0.007595 and 0.00642 and 0.01986
same,"Ratio, H2AX_4_11 K5acK9ac",[1],0.05241 and 0.03954 and 0.03977
same,"Ratio, H2AX_4_11 K9ac",[1],0.01011 and 0.01143 and 0.00727
same,"Ratio, H2AZ_1_19 K4ac",[1],0.0934 and 0.07612 and 0.06178
same,"Ratio, H2AZ_1_19 K4acK11ac",[1],0.01166 and 0.008639 and 0.01028
same,"Ratio, H2AZ_1_19 K15ac",[1],0.004599 and 0.02439 and 0.01482
same,"Ratio, H2AV_1_19 K11ac*",[2],0.004474 and 0.01793 and 0.01146
same,"Ratio, H2AX_4_11 K5acK9ac",[2],0.01434 and 0.002712 and 0.0302
same,"Ratio, H2AX_4_11 K9ac",[2],0.009767 and 0.01635 and 0.01121
same,"Ratio, H2AZ_1_19 K4ac",[2],0.09212 and 0.06375 and 0.07053
same,"Ratio, H2AZ_1_19 K4acK11ac",[2],0.007173 and 0.01149 and 0.00767
same,"Ratio, H2AZ_1_19 K15ac",[2],0.003136 and 0.01439 and 0.00489
same,"Ratio, H2AV_1_19 K11ac*",[3],0.01122 and 0 and 0.008954
same,"Ratio, H2AX_4_11 K5acK9ac",[3],0.00945 and 0.08577 and 0.02854
same,"Ratio, H2AX_4_11 K9ac",[3],0.01063 and 0.01009 and 0.01309
same,"Ratio, H2AZ_1_19 K4ac",[3],0.08614 and 0 and 0.04884
same,"Ratio, H2AZ_1_19 K4acK11ac",[3],0.008371 and 0 and 0.01009
same,"Ratio, H2AZ_1_19 K15ac",[3],0.007824 and 0 and 0.01105
same,"Ratio, H2AV_1_19 K11ac*",[4],0.005769 and 0.002136 and 0.002357
same,"Ratio, H2AX_4_11 K5acK9ac",[4],0.04001 and 0.01893 and 0.03445
same,"Ratio, H2AX_4_11 K9ac",[4],0.01286 and 0.00924 and 0.00685
same,"Ratio, H2AZ_1_19 K4ac",[4],0 and 0.02795 and 0.04699
same,"Ratio, H2AZ_1_19 K4acK11ac",[4],0 (2×) and 0.004492
same,"Ratio, H2AZ_1_19 K15ac",[4],0 and 0.01504 and 0.003466
same,"Average ratio, H2AV_1_19 K11ac*",[5],0.0113
same,"Average ratio, H2AX_4_11 K5acK9ac",[5],0.0439
same,"Average ratio, H2AX_4_11 K9ac",[5],0.0096
same,"Average ratio, H2AZ_1_19 K4ac",[5],0.0771
same,"Average ratio, H2AZ_1_19 K4acK11ac",[5],0.0102
same,"Average ratio, H2AZ_1_19 K15ac",[5],0.0146
same,"Average ratio, H2AV_1_19 K11ac*",[6],0.0034
same,"Average ratio, H2AX_4_11 K5acK9ac",[6],0.0311
same,"Average ratio, H2AX_4_11 K9ac",[6],0.0097
same,"Average ratio, H2AZ_1_19 K4ac",[6],0.0250
same,"Average ratio, H2AZ_1_19 K4acK11ac",[6],0.0015
same,"Average ratio, H2AZ_1_19 K15ac",[6],0.0062
same,"Fold-change 0.1 v 30, H2AV_1_19 K11ac*",[7],3.30
same,"Fold-change 0.1 v 30, H2AX_4_11 K5acK9ac",[7],1.41
same,"Fold-change 0.1 v 30, H2AX_4_11 K9ac",[7],1.00
same,"Fold-change 0.1 v 30, H2AZ_1_19 K4ac",[7],3.09
same,"Fold-change 0.1 v 30, H2AZ_1_19 K4acK11ac",[7],6.81
same,"Fold-change 0.1 v 30, H2AZ_1_19 K15ac",[7],2.37
same,"Fold-change 0.1 v 30, H3_18_26 unmod","KQLATKAAR(H3_18_26), PF-9363 0.1 v 30",0.96
same,"Average ratio, H3_18_26 unmod","KQLATKAAR(H3_18_26), PF-9363 (0.1 mM)",0.9434
same,"Average ratio, H3_18_26 unmod","KQLATKAAR(H3_18_26), PF-9363 (30 mM)",0.9781
same,"Ratio, H3_73_83 K79me1","PF-9363 0.1, Replicates 1-3",0.07799 and 0.09275 and 0.09546
same,"Ratio, H3_73_83 K79me2","PF-9363 0.1, Replicates 1-3",0.05292 and 0.1051 and 0.06234
same,"Ratio, H3_73_83 unmod","PF-9363 0.1, Replicates 1-3",0.8672 and 0.8006 and 0.8413
same,"Ratio, H4_4_17 K12acK16ac","PF-9363 0.1, Replicates 1-3",0.009379 and 0.008608 and 0.009722
same,"Ratio, H4_4_17 unmod","PF-9363 0.1, Replicates 1-3",0.6357 and 0.6297 and 0.6309
same,"Ratio, H4_20_23 K20me1","PF-9363 0.1, Replicates 1-3",0.02877 and 0.03606 and 0.02758
same,"Ratio, H4_20_23 unmod","PF-9363 0.1, Replicates 1-3",0.03039 and 0.02967 and 0.02773
same,"Fold-change 0.1 v 30, H2A1_12_17 unmod (AKAKTR)","PF-9363 0.1 v 30, peptide H2A1_12_17 unmod, MCF-7",0.98
same,"Fold-change 0.1 v 30, H2A3_12_17 K15me1 (AKAKSR)","PF-9363 0.1 v 30, peptide H2A3_12_17 K15me1, MCF-7",0.96
same,"Ratio, H2A1_1_11 K5ac","PF-9363 1, Replicates 1-3",0.9077 and 0.9494 and 0.9116
same,"Ratio, H2A1_4_11 K5ac","PF-9363 1, Replicates 1-3",0.06275 and 0.03204 and 0.05607
same,"Ratio, H2A1_4_11 K9ac","PF-9363 1, Replicates 1-3",0.0308 and 0.06179 and 0.03113
